Measured values: ChEMBL document CHEMBL1201862, “PubChem BioAssay data set” (2004)
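All cell lines were grown in 96-well plates and treated with compound for 48 hours. At the GI50, growth is halved.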 Calls of active or inactive are those of the source. Cut-off read from the data, not from the text of the source: active = GI50 up to about 1.1 µM and inactive = higher.

Assays:
Assay in all cases: NCI tumour cell line growth inhibition, 48 h
786-0 = test system: 786-0
SK-OV-3 = test system: SK-OV-3
HCT-15 = test system: HCT-15
MOLT-4 = test system: MOLT-4
OVCAR-8 = test system: OVCAR-8
SF-295 = test system: SF-295
OVCAR-5 = test system: OVCAR-5
NCI-H23 = test system: NCI-H23
Malme-3M = test system: Malme-3M
HT-29 = test system: HT-29
SW-620 = test system: SW-620
CAKI-1 = test system: CAKI-1
RPMI-8226 = test system: RPMI-8226
SR = test system: SR
HCT-116 = test system: HCT-116
RXF 393 = test system: RXF 393

Row | SMILES | GI50 (786-0) | GI50 (SK-OV-3) | GI50 (HCT-15) [µM] | GI50 (MOLT-4) | GI50 (OVCAR-8) | GI50 (SF-295) | GI50 (OVCAR-5) | GI50 (NCI-H23) | GI50 (Malme-3M) | GI50 (HT-29) | GI50 (SW-620) | GI50 (CAKI-1) | GI50 (RPMI-8226) | GI50 (SR) | GI50 (HCT-116) | GI50 (RXF 393)
1 | CC1SC2=NC3=C(c4ccccc4C3=O)C(c3ccc(Cl)cc3)N2C1=O (centres undefined) | > 100 µM (inactive) | > 100 µM (inactive) | > 100 | > 100 µM (inactive) | > 100 µM (inactive) | > 100 µM (inactive) | > 100 µM (inactive) | 97.7 µM (inactive) | > 100 µM (inactive) | > 100 µM (inactive) | > 100 µM (inactive) | > 100 µM (inactive) | 64 µM (inactive) |  |  | 
2 | C/C(=N/NC(=O)C[n+]1ccccc1)C(CN(CC(C)C)CC(C)C)C(=O)Nc1ccc(C)cc1C (centres undefined) | > 100 µM (inactive) | > 100 µM (inactive) |  | > 100 µM (inactive) | > 100 µM (inactive) |  | 65.5 µM (inactive) | > 100 µM (inactive) | > 100 µM (inactive) | > 100 µM (inactive) | > 100 µM (inactive) |  | 68.1 µM (inactive) | > 100 µM (inactive) | > 100 µM (inactive) | 61.2 µM (inactive)
3 | Cc1ccc2c(c1)NC(=O)C(N=[N+]=[N-])(c1ccccc1)C2=O (centres undefined) | 30.5 µM (inactive) | 33.9 µM (inactive) | 21.5 | 24.7 µM (inactive) | 27.2 µM (inactive) | 25.8 µM (inactive) | 33 µM (inactive) | 20 µM (inactive) | 32.5 µM (inactive) | 20 µM (inactive) | 34.8 µM (inactive) | 24.4 µM (inactive) |  | 20.7 µM (inactive) | 35.2 µM (inactive) | 
4 | C=C[C@H]1C=Cc2c(OC)cccc2[C@@H]1COP1(=S)NC(C)C(c2ccccc2)O1 (some centres undefined) | > 100 µM (inactive) | > 100 µM (inactive) |  | 33.9 µM (inactive) | 81.5 µM (inactive) | > 100 µM (inactive) |  | 50.1 µM (inactive) |  | 79.6 µM (inactive) | > 100 µM (inactive) |  | 27 µM (inactive) |  | 52.8 µM (inactive) | 51.1 µM (inactive)
5 | CC(C)(C)c1cc2c3c(c1)c(=O)c1cccc4c(O)c5cccc(c2=O)c5c-3c41 | 84.7 µM (inactive) | > 100 µM (inactive) | 48.5 | 38.1 µM (inactive) | > 100 µM (inactive) | 60.1 µM (inactive) | 92.5 µM (inactive) | 68.4 µM (inactive) | > 100 µM (inactive) | 27.7 µM (inactive) | > 100 µM (inactive) | > 100 µM (inactive) |  | 15.3 µM (inactive) | 59.7 µM (inactive) | 34 µM (inactive)
6 | COC(=O)[C@@]12C3=NO[C@]1(C(=O)OC)C(O[Si](C)(C)C(C)(C)C)[C@@H](OC(C)=O)[C@@H](OC(C)=O)[C@@H]2[C@@H](OCc1ccccc1)CC3 (some centres undefined) | 14.2 µM (inactive) | > 100 µM (inactive) | > 30.9 | 5.14 µM (inactive) | > 61.1 µM (inactive) | 5.68 µM (inactive) | 8.79 µM (inactive) | 4.9 µM (inactive) | 7.28 µM (inactive) | > 72.3 µM (inactive) | > 100 µM (inactive) | 3.8 µM (inactive) | 4.42 µM (inactive) |  | 5.07 µM (inactive) | 3.06 µM (inactive)
7 | [N-]=[N+]=Nc1ccc(S(=O)(=O)Oc2cc(OS(=O)(=O)c3ccc(N=[N+]=[N-])cc3)cc(OS(=O)(=O)c3ccc(N=[N+]=[N-])cc3)c2)cc1 | > 100 µM (inactive) |  | > 100 | > 100 µM (inactive) | > 10 µM (inactive) | > 100 µM (inactive) | > 100 µM (inactive) | > 100 µM (inactive) | > 100 µM (inactive) | > 100 µM (inactive) | > 10 µM (inactive) | > 10 µM (inactive) | > 100 µM (inactive) | > 100 µM (inactive) | > 100 µM (inactive) | > 100 µM (inactive)
8 | O=C(Nc1ccccc1[N+](=O)[O-])c1ccccc1 | > 100 µM (inactive) | > 100 µM (inactive) | > 100 | 53 µM (inactive) | > 100 µM (inactive) | > 100 µM (inactive) | > 100 µM (inactive) | > 100 µM (inactive) | > 100 µM (inactive) | > 100 µM (inactive) | > 100 µM (inactive) | > 100 µM (inactive) | 80.9 µM (inactive) |  | > 100 µM (inactive) | 37.3 µM (inactive)
9 | CN1N=CSC12C(=O)N(c1ccccc1)C(=O)N2c1ccccc1 (centres undefined) | > 100 µM (inactive) | > 100 µM (inactive) | > 100 | > 100 µM (inactive) | > 100 µM (inactive) | > 100 µM (inactive) | > 100 µM (inactive) | > 100 µM (inactive) | > 100 µM (inactive) | > 100 µM (inactive) | > 100 µM (inactive) | > 100 µM (inactive) | > 100 µM (inactive) |  | > 100 µM (inactive) | > 100 µM (inactive)
10 | O=c1/c(=C/c2ccccc2[N+](=O)[O-])sc2nnc(-c3ccco3)n12 | 42 µM (inactive) | 47.4 µM (inactive) | 28.2 | 31.6 µM (inactive) | 17 µM (inactive) | 23.6 µM (inactive) | 50.2 µM (inactive) | 22.2 µM (inactive) | 23 µM (inactive) | 28.1 µM (inactive) | 20.4 µM (inactive) | 39.7 µM (inactive) |  | 32.3 µM (inactive) | 26.9 µM (inactive) | 16.8 µM (inactive)
11 | COc1c(C)c(O)c2c(c1C)OC(c1ccccc1)CC2=O (centres undefined) | 89.3 µM (inactive) | > 100 µM (inactive) | 30.5 | 31.8 µM (inactive) | 62.4 µM (inactive) | 50.6 µM (inactive) | 61.8 µM (inactive) | 42.5 µM (inactive) | 24.6 µM (inactive) | 43.2 µM (inactive) | 64.4 µM (inactive) | 41.2 µM (inactive) | 36.1 µM (inactive) | 23.5 µM (inactive) | 47.8 µM (inactive) | 
12 | COc1ccc(C)cc1-c1ccc(-c2cc(C)ccc2OC)o1 | > 100 µM (inactive) | > 100 µM (inactive) | > 100 | > 100 µM (inactive) | > 100 µM (inactive) | > 100 µM (inactive) | 87.1 µM (inactive) | > 100 µM (inactive) | 66.4 µM (inactive) | > 100 µM (inactive) | > 100 µM (inactive) | > 100 µM (inactive) | > 100 µM (inactive) |  | > 100 µM (inactive) | 
13 | COc1ccc(/C=C/C(=O)c2sc(NC(=S)NC(=O)c3ccccc3F)nc2C)cc1OC | > 100 µM (inactive) | > 100 µM (inactive) | > 100 | 65.6 µM (inactive) | > 100 µM (inactive) | > 100 µM (inactive) | > 100 µM (inactive) | > 100 µM (inactive) | > 100 µM (inactive) |  | > 100 µM (inactive) | > 100 µM (inactive) | 36.2 µM (inactive) |  |  | 36.5 µM (inactive)
14 | COc1ccc(N(C)CN(C)c2nc(N(C)C)nc(N(C)C)n2)cc1 | > 100 µM (inactive) | > 100 µM (inactive) | > 100 | > 100 µM (inactive) | > 100 µM (inactive) | > 100 µM (inactive) | > 100 µM (inactive) | > 100 µM (inactive) | > 100 µM (inactive) | > 100 µM (inactive) | > 100 µM (inactive) | > 100 µM (inactive) | > 100 µM (inactive) | > 100 µM (inactive) | > 100 µM (inactive) | 
15 | C[C@]12CCC(=O)C=C1CC[C@@H]1C2CC[C@]2(C)Nc3c(cnn3-c3ccccc3)CC12 (some centres undefined) | > 100 µM (inactive) | > 100 µM (inactive) | > 100 | > 100 µM (inactive) | > 100 µM (inactive) | > 10 µM (inactive) | > 100 µM (inactive) | > 100 µM (inactive) | > 100 µM (inactive) | > 100 µM (inactive) | > 100 µM (inactive) | > 100 µM (inactive) | > 100 µM (inactive) |  | > 100 µM (inactive) | > 100 µM (inactive)
16 | CCOc1ccc(NC(=O)CC2C(=O)Nc3ccccc3S2(=O)=O)cc1 (centres undefined) | 33.7 µM (inactive) |  | > 100 | > 100 µM (inactive) | 39.4 µM (inactive) | 49.4 µM (inactive) | > 100 µM (inactive) | > 100 µM (inactive) | > 100 µM (inactive) | > 100 µM (inactive) | > 100 µM (inactive) |  | > 100 µM (inactive) | > 100 µM (inactive) | > 100 µM (inactive) | 64.1 µM (inactive)
17 | CC(=O)NC1=C(NCCO)C(=O)c2ccccc2C1=O | > 50 µM (inactive) | > 50 µM (inactive) | > 50 | > 50 µM (inactive) | > 50 µM (inactive) | > 50 µM (inactive) |  | > 50 µM (inactive) | 12.8 µM (inactive) | > 50 µM (inactive) | > 50 µM (inactive) |  |  | > 50 µM (inactive) | 30.1 µM (inactive) | > 50 µM (inactive)
18 | CCOC(=O)C(=O)Nc1ccccc1OCC | > 100 µM (inactive) | > 100 µM (inactive) |  | > 100 µM (inactive) | > 100 µM (inactive) | > 100 µM (inactive) | > 100 µM (inactive) | > 100 µM (inactive) | > 100 µM (inactive) | > 100 µM (inactive) | > 100 µM (inactive) | > 100 µM (inactive) | > 100 µM (inactive) |  | > 100 µM (inactive) | > 100 µM (inactive)
19 | O=C1c2cccc3cccc(c23)C(=O)N1CCCN1CCN(CCCN2C(=O)c3cccc4cccc(c34)C2=O)CC1 | > 100 µM (inactive) | > 100 µM (inactive) | > 100 | > 100 µM (inactive) | > 100 µM (inactive) | > 100 µM (inactive) | > 100 µM (inactive) | > 100 µM (inactive) | > 100 µM (inactive) | > 100 µM (inactive) | > 100 µM (inactive) | > 100 µM (inactive) | > 100 µM (inactive) |  | > 100 µM (inactive) | > 100 µM (inactive)
